Data: paper PMC4136845, “Evaluation of Antimalarial Activity and Toxicity of a New Primaquine Prodrug” (PLoS ONE, 2014)
Where “and” joins values, the source holds several entries; their conditions need not be identical. Equal entries are not always repeated. Marks after values point to notes of the source that are not given here.

What was measured:
[1] = tested on: monkey kidney cell line (BGM); assay: In vitro cytotoxicity, MTT assay, BGM cells
Experimental: The HepG2 (ATCC HB-8065) was originally received from the New University of Lisbon, Portugal, and BGM received as a gift from the Federal University of Minas Gerais and originally purchased from Rio de Janeiro Cell Bank (BCRJ 0049). When confluent, the cells were washed with RPMI culture medium, then trypsinized, distributed in a flat-bottom 96-well plate (5×10^3 cells/well), and incubated for 18 h at 37°C for cell adherence as described elsewhere. The compound (20 µL) was added to each well at various concentrations (1-1000 µg/mL) and the plate incubated for 24 h in a 5% CO2 atmosphere at 37°C. MTT [3-(4,5-dimethylthiazol-2-yl)-2,5-diphenyltetrazolium bromide] (5 mg/mL; 20 µL/well) was added to evaluate mitochondrial viability, and the plates were incubated again for 3 h, under the same culture conditions. The supernatant was carefully removed, and 100 µL of DMSO were added with mixing to dissolve the formazan crystals formed. The optical density was determined at 570 and 630 nm (background) (SpectraMax 340PC 384, Molecular Devices). Cell viability was expressed as the percentage of the control absorbance of the untreated cells after subtracting the appropriate background. The minimum lethal dose for 50% of the cells (MLD50) was determined as previously described.

male Wistar rats [2] = assay: Hemogram of rats treated with multiple doses; conditions: gavage four times a day for 4 days, PQ 2.44 mg/kg free base, Phe-Ala-PQ 9.00 mg/kg, mean (CI 95)
Experimental: (§1) The biochemical, hematological and histopathological analyses were carried out in male Wistar rats (weighing 200–250 g). They were housed in wire cages, five animals per cage, with free access to food and water. The study protocol was approved by The Research Ethics Committee of the School of Pharmaceutical Sciences, UNESP, Araraquara (process 06/2009). […] After treatment with the drugs, the animals were decapitated for collection of blood and samples of liver and kidneys (preserved in 10% formaldehyde).
(§2) In biochemical analysis, aspartate aminotransferase (AST), alanine aminotransferase (ALT), gamma-glutamyltransferase (GGT), bilirubin, creatinine and urea kits were purchased from LabTest Diagnostica SA (Lagoa Santa,Minas Gerais, Brazil). Alkaline phosphatase (ALP) was assayed by the conversion of p-nitrophenyl phosphate to p-nitrophenol in a kinetic reaction, measured with a spectrophotometer at 405 nm. To determine the level of methemoglobin in relation to oxyhemoglobin, we used the method described by Naoum and collaborators. The blood was hemolyzed and the hemoglobin stabilized in 60 mM phosphate buffer, pH 6.8. The levels of methemoglobin and oxyhemoglobin were determined by spectrophotometric absorption at 630 and 540 nm. The total and differential white blood cell (WBC) counts were performed using a Neubauer chamber and blood smears, respectively. The hematocrit was determined using conventional method by microcapillary centrifugation.

male Wistar rats [3] = assay: Biochemical analysis of serum of rats treated with multiple doses; conditions: rat serum, gavage four times a day for 4 days, PQ diphosphate 2.44 mg/kg free base, Phe-Ala-PQ 9.00 mg/kg, mean
Experimental: as §1, §2

In the case of `COc1cc(NC(C)CCCNC(=O)[C@H](C)NC(=O)[C@@H](N)Cc2ccccc2)c2ncccc2c1` (stereo partly drawn) [Phe-Ala-PQ, phenylalanine-alanine-primaquine], the “MDL50 BGM, PQ equivalents” value ([1]; MTT, 24 h, expressed as PQ equivalents) is reported as 110 µg/mL, the “MDL50 (Mean±SD) BGM” value ([1]; MTT, 24 h incubation) is reported as 580 µg/mL and 580 ± 86 µg/mL and the “Toxicity to BGM cells compared to PQ” value ([1]; ratio of MDL50 values) is reported as “about two times less toxic”. The “Eosinophils Absolute (No. cells)” value (male Wistar rats [2]) was 40 (0–152) No. cells, the “Eosinophils Relative (%)” value (male Wistar rats [2]) was 0.40 (0.00–1.51) % and the Hematocrit (male Wistar rats [2]) was 47 (45–48) %. The Hemoglobin (male Wistar rats [2]) was 11.76 (11.38–12.14), the Leukocytes (male Wistar rats [2]) was 8700 ^a ^, ^b (5623–11777) /mm^3 and the “Lymphocytes Absolute (No. cells)” value (male Wistar rats [2]) was 7691 ^a ^, ^b (5947–9976) No. cells. The “Lymphocytes Relative (%)” value (male Wistar rats [2]) was 83.0 ^a (75.8–90.2) %, the Methemoglobin (male Wistar rats [2]) was 3.65 (3.45–3.85) % and the “Monocytes Absolute (No. cells)” value (male Wistar rats [2]) was 812 ^b (0–1728) No. cells. The “Monocytes Relative (%)” value (male Wistar rats [2]) was 7.60 ^b (0.06–15.1) %, the “Neutrophils Band Absolute (No. cells)” value (male Wistar rats [2]) was 0 No. cells and the “Neutrophils Band Relative (%)” value (male Wistar rats [2]) was 0%. The “Neutrophils Segmented Absolute (No. cells)” value (male Wistar rats [2]) was 895 (163–1626) No. cells, the “Neutrophils Segmented Relative (%)” value (male Wistar rats [2]) was 9.00 ^a (2.55–15.4) % and the ALP (male Wistar rats [3]) was 93.52 U/L. For the same molecule, the ALT (male Wistar rats [3]) was 185.7 ^a, ^b U/L, the AST (male Wistar rats [3]) was 290.6^a, ^b U/L and the Creatinine (male Wistar rats [3]) was 0.529 mg/dL. The Direct bilirubin (male Wistar rats [3]) was 0.147 mg/dL, the GGT (male Wistar rats [3]) was 13.03^a, ^b U/L and the Total bilirubin (male Wistar rats [3]) was 0.711 mg/dL. The Urea (male Wistar rats [3]) was 5.734^a, ^b mg/dL and the Urea (male Wistar rats [3]; listed as prodrug) was 5.734 mg/dL.
